From patent US7183320B2, “Benzoylsulfonamides and sulfonylbenzamidines for use as antitumour agents” (Eli Lilly and Company, priority 2002, dated 2007) come the findings set out here.

The structures appear in SMILES notation.

The test system of the first assay is HCT116 colon carcinoma cells. The experiment in a line: HCT116 colon carcinoma cell growth inhibition (WST-1, 72 hr). Format: cell-based, human. Conditions: 72 hr exposure. As to the method:
HCT116 Colon Carcinoma Cell Growth Inhibition
HCT116 colon carcinoma cells were grown monolayer culture in RPMI 1640 medium supplemented with 10% fetal bovine serum and 1% penicillin-streptomycin (GibcoBRL, Grand Island, N.Y.). HCT116 cells in exponential growth phase were exposed to various concentrations of the test compounds at 37° C. for 72 hr in 5% carbon dioxide/air. After exposure to the agent, the cells were washed with 0.9% phosphate buffered saline. Growth inhibition was determined using WST-1 cell proliferation reagent as described above. The results are expressed as the growth fraction of treated cells compared with control cultures. Representative compounds of the present invention were tested for efficacy against the human colon HCT116 tumor cells.
(Tetrazolium assays rely on reduction of a dye to a coloured formazan, in cell work by metabolically active cells.)
The IC50 is the point on the concentration scale where inhibition reaches its midpoint. Low values mean greater potency, high ones weaker potency. `COC(=O)c1ccc(S(=O)(=O)NC(=O)c2ccc(Cl)cc2Br)cc1` [Example 30, N-[2-bromo-4-chlorobenzoyl]-4-methyoxycarbonyl-phenylsulfonamide]: 10.1 µM corresponded to half-maximal inhibition (IC50).

The assay is the same for the next values; noted with them: Homo sapiens, HCT-116, 72 hr exposure.
`O=C(NS(=O)(=O)c1cccc(Br)c1)c1ccc(Cl)cc1Cl` [Example 1, N-[2,4-dichlorobenzoyl]-3-bromophenylsulfonamide] had an IC50 of 4.2 µM. `COc1ccc(S(=O)(=O)NC(=O)c2ccc(Cl)cc2Cl)cc1` [Example 3, N-[2,4-dichlorobenzoyl]-4-methoxyphenylsulfonamide] registered a half-maximal inhibitory concentration (IC50) of 2.5 µM. This IC50 is about 1.7-fold lower than that of the compound before. On the same count and under the same terms, the value for `CC(C)(C)c1ccc(S(=O)(=O)NC(=O)c2ccc(Br)cc2Br)cc1` [Example 5, N-[2,4-dibromobenzoyl]-4-tert-butylphenylsulfonamide] was 3.8 µM; that for `O=C(NS(=O)(=O)c1ccc(Cl)cc1)c1ccc(Br)cc1Br` [Example 6, N-[2,4-dibromobenzoyl]-4-chlorophenylsulfonamide] was 4 µM; that for `O=C(NS(=O)(=O)c1ccc(F)c(Cl)c1)c1ccc(Cl)cc1Cl` [Example 9, N-[2,4-dichlorobenzoyl]-3-chloro-4-fluorophenylsulfonamide] was 1.7 µM.

`O=C(NS(=O)(=O)c1ccc(Cl)cc1)c1ccc([N+](=O)[O-])cc1Cl` [Example 10, N-[2-chloro-4-nitrobenzoyl]-4-chlorophenylsulfonamide] showed a concentration for half-maximal inhibition (IC50) of 12.1 µM. For the compound `O=C(NS(=O)(=O)c1ccccc1)c1ccc(Br)cc1Cl` [Example 11, N-[2-chloro-4-bromobenzoyl]-phenylsulfonamide], the 50% inhibitory concentration (IC50) came out at 5.5 µM. As to `O=C(NS(=O)(=O)c1ccc(Br)cc1)c1ccc(Br)cc1Cl` [Example 14, N-[2-chloro-4-bromobenzoyl]-4-bromophenylsulfonamide], half-maximal inhibition (IC50) was put at 40 µM. This IC50 is about 7.3-fold higher than that of the compound before. Compound `O=C(NS(=O)(=O)c1ccc(Br)cc1)c1ccc([N+](=O)[O-])cc1Cl` [Example 15, N-[2-chloro-4-nitrobenzoyl]-4-bromophenylsulfonamide] came in with an IC50 of 10.4 µM.

`O=C(NS(=O)(=O)c1ccc(F)cc1)c1ccc(Br)cc1Cl` [Example 16, N-[2-chloro-4-bromobenzoyl]-4-fluorophenylsulfonamide] gave an IC50 of 3.8 µM. In turn, `O=C(NS(=O)(=O)c1cccc(Cl)c1)c1ccc(Br)cc1Cl` [Example 17, N-[2-chloro-4-bromobenzoyl]-3-chlorophenylsulfonamide] showed an IC50 of 15.8 µM. Against the preceding compound, the IC50 is about 4.2-fold higher. Turning to `COc1ccc(S(=O)(=O)NC(=O)c2ccc(Br)cc2Cl)cc1` [Example 18, N-[2-chloro-4-bromobenzoyl]-4-methoxyphenylsulfonamide], the half-inhibitory concentration (IC50) is 9.3 µM. Still for that read-out and setting: the value for `COc1ccc(S(=O)(=O)NC(=O)c2ccc([N+](=O)[O-])cc2Cl)cc1` [Example 20, N-[2-chloro-4-nitrobenzoyl]-4-methoxyphenylsulfonamide] was 2.4 µM; that for `O=C(NS(=O)(=O)c1ccc(Cl)c(Cl)c1)c1ccc([N+](=O)[O-])cc1Cl` [Example 21, N-[2-chloro-4-nitrobenzoyl]-3,4-dichlorophenyl-sulfonamide] was 30.4 µM; that for `Cc1ccc(S(=O)(=O)NC(=O)c2ccc(Cl)cc2C)cc1` [Example 23, N-[2-methyl-4-chlorobenzoyl]-4-methylphenylsulfonamide] was 15.9 µM. `O=C(NS(=O)(=O)c1ccc(Br)c(Br)c1)c1ccc(Cl)cc1Cl` [Example 24, N-[2,4-dichlorobenzoyl]-3,4-dibromophenylsulfonamide] yielded an IC50 of 37.1 µM.

In turn, `O=C(NS(=O)(=O)c1cccc(C(F)(F)F)c1)c1ccc(Cl)cc1Cl` [Example 25, N-[2,4-dichlorobenzoyl]-3-trifluoromethyl-phenylsulfonamide] registered a 50% inhibitory concentration (IC50) of 9.6 µM. This IC50 lies about 3.9-fold lower than the previous one. The same measure, in the same setting: the result for `O=C(NS(=O)(=O)c1cccc(F)c1)c1ccc(Cl)cc1Cl` [Example 26, N-[2,4-dichlorobenzoyl]-3-fluorophenylsulfonamide] reads 6.1 µM; that for `COC(=O)c1cc(S(=O)(=O)NC(=O)c2ccc(Cl)cc2Br)ccc1OC` [Example 32, N-[2-bromo-4-chlorobenzoyl]-3-methoxycarbonyl-4-methoxyphenylsulfonamide], 7.8 µM; that for `CC(C)(C)c1ccc(S(=O)(=O)NC(=O)c2ccc(Cl)cc2Br)cc1` [Example 33, N-[2-bromo-4-chlorobenzoyl]-4-tert-butylphenylsulfonamide], 7.8 µM. Still for that read-out and setting: the value for `COC(=O)c1cc(S(=O)(=O)NC(=O)c2ccc(Br)cc2Br)ccc1OC` [Example 34, N-[2,4-dibromobenzoyl]-3-methoxycarbonyl-4-methoxyphenylsulfonamide] was 16.5 µM; that for `Cc1cc(Br)ccc1C(=O)NS(=O)(=O)c1ccc(F)c(Cl)c1` [Example 35, N-[2-methyl-4-bromobenzoyl]-3-chloro-4-fluorophenylsulfonamide] was 17 µM; that for `Cc1cc(Br)ccc1C(=O)NS(=O)(=O)c1ccc(I)cc1` [Example 36, N-[2-methyl-4-bromobenzoyl]-4-iodophenylsulfonamide] was 28.4 µM. Still for that read-out and setting: the result for `Cc1cccc(S(=O)(=O)NC(=O)c2ccc(Br)cc2C)c1` [Example 37, N-[2-methyl-4-bromobenzoyl]-3-methylphenylsulfonamide] reads 15.5 µM; that for `O=C(NS(=O)(=O)c1ccc(I)cc1)c1ccc(Br)cc1Br` [Example 38, N-[2,4-dibromobenzoyl]-4-iodophenylsulfonamide], 13.9 µM. The compound `COc1ccc(S(=O)(=O)NC(=O)c2ccc(Cl)cc2C)cc1` [Example 41, N-[2-methyl-4-chlorobenzoyl]-4-methoxyphenylsulfonamide] returned a half-inhibitory concentration (IC50) of 14.5 µM. The same measure, in the same setting: the result for `Cc1cc(Cl)ccc1C(=O)NS(=O)(=O)c1ccc(F)cc1` [Example 42, N-[2-methyl-4-chlorobenzoyl]-4-fluorophenylsulfonamide] reads 3.3 µM; that for `COc1cc(C)ccc1S(=O)(=O)NC(=O)c1ccc(Cl)cc1C` [Example 44, N-[2-methyl-4-chlorobenzoyl]-2-methoxy-4-methylphenylsulfonamide], 18.7 µM; that for `Cc1ccc(S(=O)(=O)NC(=O)c2ccc(Cl)cc2C)cc1Cl` [Example 45, N-[2-methyl-4-chlorobenzoyl]-3-chloro-4-methylphenylsulfonamide], 20.7 µM. Same read-out and setting: the result for `O=C(NS(=O)(=O)c1ccc(F)cc1)c1ccc(C(F)(F)F)cc1C(F)(F)F` [Example 46, N-[2,4-bis-trifluoromethylbenzoyl]-4-fluorophenylsulfonamide] reads 4.8 µM; that for `COc1ccc(S(=O)(=O)NC(=O)c2ccc(C(F)(F)F)cc2C(F)(F)F)cc1` [Example 47, N-[2,4-bis-trifluoromethylbenzoyl]-4-methoxyphenylsulfonamide], 8.7 µM; that for `O=C(NS(=O)(=O)c1ccc(Br)cc1)c1ccc(C(F)(F)F)cc1C(F)(F)F` [Example 49, N-[2,4-bis-trifluoromethylbenzoyl]-4-bromophenylsulfonamide], 14.7 µM. `Cc1cccc(S(=O)(=O)NC(=O)c2ccc(C(F)(F)F)cc2C(F)(F)F)c1` [Example 50, N-[2,4-bis-trifluoromethylbenzoyl]-3-methylphenylsulfonamide] gave an IC50 of 10.5 µM. The same measure, in the same setting: the result for `Cc1cc(Cl)ccc1C(=O)NS(=O)(=O)c1ccc(OC(F)(F)F)cc1` [Example 51, N-[2-methyl-4-chlorobenzoyl]-4-trifluoromethoxy-phenylsulfonamide] reads 26.7 µM.
